Measurements taken from patent publication US20060057071A1, “Paramagnetic complexes with pendant crown compounds showing improved targeting-specificity as MRI contrast agents” (priority 2004, published 2006).
Read-outs that look alike come from different tables or passages of the source.

How the values were obtained:
[1] = cited from earlier work
[2] = Variable-temperature 17O NMR transverse relaxation rate; assay type: physicochemical; settings: for TM: pH 6.9, derived from VT 17O NMR spectroscopy; for exchange lifetime TM of inner-sphere coordinated water: 298 K (25° C.), 2.12 T; for q, inner-sphere coordinated water molecules: from NMRD profile / 17O NMR data, near neutral pH
Excerpt: (§1) Measuring the relaxation rates of an abundant nuclear species as a function of the magnetic field over a wide range is called relaxometry. A relaxometry profile is a plot of the nuclear magnetic relaxation rate, usually 1/T1, as a function of the Larmor frequency or the magnetic field. This profile is also called a Nuclear Magnetic Resonance Dispersion (NMRD) profile. Compared with the NMRD profile, the prominent advantage of the ^17O NMR technique is that it allows the accurate determination of the water exchange rate 1/TM. This is a consequence of the oxygen nucleus being closer to the paramagnetic centre when bound in the inner-sphere, wherein the outer-sphere contributions to the relaxation rates are negligibly small. With the help of NMRD profiles, ^17O NMR measurements, and the Soloman-Bloemnergen-Morgan theory, several important parameters, such as TM, TR, TV, Δ^2 and rH, can be measured.
The variable-temperature ^17O NMR measurements were recorded on a JEOL EX-90 (2.1 T) spectrometer that was equipped with a 5 mm probe, by using a D2O external lock. The experimental settings were: spectral width of 10000 Hz, pulse width of 7 μs, acquisition time of 10 ms, 1000 scans, and no sample spinning. Solutions containing 2.6% of ^17O isotope were used. The observed transverse relaxation rates (R2obs^O) were calculated from the signal width at half height.

[3] = 1H NMRD profiles (water proton relaxivity); assay type: physicochemical; settings: for D / TR / TV / a / q / r / Δ^2: 25° C., pH 6.9, fits of NMRD profile and 17O NMR
Excerpt: as §1
Water proton nuclear magnetic resonance dispersion NMRD profile is used to record the longitudinal water proton relaxation rates as a function of magnetic fields. The method is, in principle, sensitive to all of the parameters that influence relaxivity. The ^1H NMRD profiles were measured over a continuum of magnetic field strength from 0.00024 to 0.24 T (corresponding to 0.01-10 MHz proton Larmor frequency, 1 T≈41.7 MHz) on a Spinmaster FFC (Stelar, Mede (PV)), which is a fast field-cycling NMR relaxometer installed at the LIMA Laboratory (Bioindustry Park, Ivrea (TO), Italy). The relaxometer worked under complete control with an absolute uncertainty in 1/T1 of ±2%. The NMRD profiles were measured using 1-2 mM solutions of the complexes.

kidney cortex = experiment: In vivo MRI, renal intensity enhancement; design: species or system rat; settings: for maximal renal intensity enhancement (IE): 0.1 mmol/kg (standard dosage), rat, first few minutes after administration
Protocol: (§2) To study the MRI contrast and biodistribution behavior of gadolinium complexes […] pendant crown ethers, experiments were performed using male Sprague-Dawley (SD) rats that weighted 150-180 g, and were housed at the Wuhan Institute of Physical and Mathematics of the Chinese Academy of Sciences (Wuhan, Hubei Province, China). All procedures conformed to the institutional guidelines for animal welfare. The rat was injected via the femoral vein with 1 mL saline solution of GdL1 in concentrations of 0.1, 0.033, and 0.02 mM/kg, which are the standard dosage, one third and one fifth of the standard dosage used in clinic currently. MR imaging was performed on a 4.7 T Bruker BIO-SPEC-47/30 MRI scanner with a custom spiral surface coil. The animal was scanned in the prone position in the MRI experiment. […] The total duration of the dynamic scanning lasted up to 400 min after the administration, with an image every 4 min. A water tube was placed in the field of view as a phantom reference. The intensity enhancement (IE) of the region of interest (RI) at time point t is expressed by IE=100% (RI(t)-RI(0))/RI(0) where RI(t) corresponds to the normalized signal intensity as measured at time point, t and RI(0) is the normalized signal intensity precontrast.

liver parenchyma = experiment: In vivo MRI, hepatic intensity enhancement; design: species or system rat; settings: for maximal hepatic IE: 0.1 mmol/kg (standard dosage), rat
Protocol: as §2

[4] = 1H NMRD profiles (water proton relaxivity); assay type: physicochemical; settings: 20 MHz
[5] = Luminescence lifetime measurements for inner-sphere water molecules q (Tb complexes); assay type: physicochemical; settings: for kH2O, absolute emission depopulation rate constant: in H2O; for kH2O, absolute emission depopulation rate constant / kH2O (Table 1), absolute emission depopulation rate constant / q, hydration state: pH 6.9 (0.1 M Tris/HCl), 298 K; for kH2O, absolute emission depopulation rate constant / kH2O (Table 1), absolute emission depopulation rate constant: ±10%; for kH2O (Table 1), absolute emission depopulation rate constant: title names H2O and D2O; for q, hydration state: q^Tb = 5 (1/τH2O - 1/τD2O-0.06); for inner-sphere coordinated (bound) water molecules: luminescent measurements, pH 6.9
Excerpt: As previously mentioned, inner-sphere proton relaxivity is linearly proportional to the number of water molecules q that are directly coordinated to the Gd^3+ center. However, there is a trade-off between the q value and toxicity. […] It is noteworthy that there is no direct method of measuring the hydration number. The two commonly used indirect methods are as follows: (1) Lanthanide-induced shift (LIS) methods (see, Alpoim et al., J. Chem. Soc., Dalton Trans., 1992, 463). For paramagnetic Ln^3+ ions, the plot of the observed ^17O shift in Ln^3+ chelate solution versus the complex concentration gives a straight line, with the slope being proportional to its hydration number. (2) The lanthanide luminescence method. According to the Horrocks equation, the q value can be calculated by the emission rate constants for the depopulation of Tb^3+ or Eu^3+ complexes measured in H2O and D2O (see, Beeby at al., J. Chem. Soc., Perkin Trans. 2, 1999, 493). With this method, the q values of the Gd^3+ complexes in aqueous solution can be measured indirectly by their corresponding Tb^3+ or Eu^3+ complexes, because of the very similar coordination behavior between these three lanthanide ions.
Luminescence lifetime measurements were all obtained on a Perkin-Elmer LS 50B spectrofluorimeter with a 420 nm cut-off filter. The concentration of the complex was 1×10^−5˜1×10^−4 mol dm^−3. The emission of Tb^3+ or Eu^3+ complexes was monitored at […]. Gd^3+ is a neighbor of Eu^3+ and Tb^3+ with a nearly identical ionic radius, and thus their chemistries are virtually identical. Therefore, the Horrocks equation for determining the number of coordinated water molecules q for Eu^3+ and Tb^3+ is still valid for the calculation of the q value of Gd^3+. In general, the number of coordinated water molecules q can be determined by the measurement of the luminescent lifetime of the complexes separately in H2O and D2O by application of the Horrocks equation. q′corr=A′(kH2O−kD2O−a) where k is the constant for depopulation (reciprocal of luminescent lifetime), and A is a proportionality constant that signifies the sensitivity of the lanthanide ion to vibronic quenching by OH oscillators. a is correlation value for the consideration of the outer-sphere water molecules.

Compound	TM ([2]; 25° C.) [ns]	D [3] [cm^2s^−1]	TR [3] [ps]	TV [3] [ps]	a [3] [Å]	q [3]	r [3] [Å]	Δ^2 [3] [s⁻¹]	kH2O, absolute emission depopulation rate constant [5] [ms^−1]	kH2O (Table 1), absolute emission depopulation rate constant [5] [ms^−1]	q, hydration state [5]	inner-sphere coordinated (bound) water molecules [5]	other results
O=C([O-])CN(CCN(CC(=O)[O-])CC(=O)O)CCN(CC(=O)[O-])CC(=O)O.[Gd+3] [Gd-DTPA, reference compound]	250	2.24E-5	73	20	4.0	1	3.1	4.2e+19					r1p ([1]; 20 MHz, 298 K, typical values): 4.69 mM⁻¹ s⁻¹; bound water molecular resident lifetime TM ([1]; 298 K, typical values): ~303 ns
CC(O)CN1CCN(CC(=O)[O-])CCN(CC(=O)[O-])CCN(CC(=O)[O-])CC1.[Gd+3] (stereo not shown) [Gd-[HP-DO3A]]													relaxivity ([1]; 40° C., 20 MHz): 3.65 mM⁻¹ s⁻¹
O=C([O-])CN1CCN(CCOCC2COCCOCCOCCOCCO2)CCN(CC(=O)[O-])CCN(CC(=O)[O-])CC1.[Gd+3] (stereo not shown) [GdL2, Gd^3+ complex of L2]	116	2.24E-5	140	13	4.0	2	2.97	9e+19					renal enhancement left in less than an hour (kidney cortex; 0.1 mmol/kg): 30%; maximal renal intensity enhancement (IE) (kidney cortex): 135%; hepatic IE level maintained for more than 4 h (liver parenchyma; 0.1 mmol/kg): > 60%; time after administration of maximal hepatic IE (liver parenchyma; 0.1 mmol/kg): 60 min; time for which strong/high hepatic IE was maintained (liver parenchyma; 0.1 mmol/kg): more than 4 h; maximal hepatic IE (liver parenchyma): 100%; proton relaxivity r1 (r1p) ([4]; 25° C., pH 6.9): 9.36 mM⁻¹ s⁻¹; outer-sphere contribution to the overall observed proton relaxivity ([4]; pH 10.0): about 50%; outer-sphere relaxivity ([4]; pH 10.0): 2.1 mM⁻¹ s⁻¹; overall relaxivity ([4]; pH 10.0): 4.21 mM⁻¹ s⁻¹; water exchange rate kex^298 ([2]; 25° C.): 8.62e+06 s⁻¹; exchange lifetime TM of inner-sphere coordinated water [2]: 116 ns; q, inner-sphere coordinated water molecules [2]: about 2
O=C([O-])CN1CCN(CC(=O)[O-])CCN(CC(=O)N2CCOCCOCCN(Cc3ccc4ccccc4n3)CCOCCOCC2)CCN(CC(=O)[O-])CC1.[Gd+3] [GdL3, Gd^3+ complex of L3]	246	2.24E-5	210	21	4.2	1	3.03	3e+19					maximal renal intensity enhancement (IE) (kidney cortex): 58%; hepatic IE level maintained for more than 4 h (liver parenchyma; 0.1 mmol/kg): about 50%; time for which strong/high hepatic IE was maintained (liver parenchyma; 0.1 mmol/kg): more than 4 h; maximal hepatic IE (liver parenchyma): 59%; relaxivity ([4]; pH 7.4): 4.95 mM⁻¹ s⁻¹; exchange lifetime TM of inner-sphere coordinated water [2]: 246 ns; q, inner-sphere coordinated water molecules [2]: 1; reorientation lifetime TR [3]: 210 ps
O=C([O-])CN1CCN(CC(=O)[O-])CCN(C(CO)C(O)CO)CCN(CC(=O)[O-])CC1.[Gd+3] (stereo not shown) [Gd[DO3A-butrol]]													relaxivity ([1]; 37° C., 20 MHz): 5.6 mM⁻¹ s⁻¹
O=C([O-])CN1CCNCCN(CC(=O)[O-])CCN(CC(=O)[O-])CC1.[Tb+3] [Tb-DO3A, reference compound]									0.88	0.42	2.0		
O=C([O-])CN1CCN(CC(=O)[O-])CCN(CC(=O)[O-])CCN(CC(=O)[O-])CC1.[Tb+3] [Tb-DOTA, reference compound]									0.48	0.27	0.8		
O=C([O-])CN1CCN(CCN2CCOCCOCCOCCOCC2)CCN(CC(=O)[O-])CCN(CC(=O)[O-])CC1.[Tb+3] [TbL1]									0.72	0.34	1.6	two	
O=C([O-])CN1CCN(CCOCC2COCCOCCOCCOCCO2)CCN(CC(=O)[O-])CCN(CC(=O)[O-])CC1.[Tb+3] (stereo not shown) [TbL2]									0.74	0.35	1.7	two	
O=C([O-])CN1CCN(CC(=O)[O-])CCN(CC(=O)N2CCOCCOCCN(Cc3ccc4ccccc4n3)CCOCCOCC2)CCN(CC(=O)[O-])CC1.[Tb+3] [TbL3]									0.50	0.31	0.7	one	
